Assay results taken from patent publication US20120122765A1, “COMPOUNDS AND RELATED METHODS FOR MANIPULATING PARP-1-DEPENDENT CELL DEATH” (priority 2010, published 2012).
Where two headings read alike, the source gives them in different places. One block for each molecule: values may come before it.

Legend:
isolated mitochondria = test: AIF binding to isolated mitochondria
Procedure: One commonly accepted estimate is that approximately 20%-30% of AIF resides on the cytosolic side of the outer membrane of mitochondria, where it is poised to be rapidly released by PAR following PARP-1 activation. Applicants thus wanted to perform tests of AIF binding to mitochondria determine how readily purified WT-AIF and Pbm-AIF bind to mitochondria in a time- and concentration-dependent manner. Specifically, recombinant WT-AIF (2.5 ng/μl) and Pbm-AIF (2.5 ng/μl) were incubated with isolated mitochondria (200 μg/ml) for 1 minute, 5 minutes, 10 minutes, 15 minutes, 20 minutes or 30 minutes. […] The results of this portion of the experiment is provided by the graph of FIG. 15B.
To investigate the mechanism underlying mitochondrial AIF release following PARP-1 activation, Applicants incubated isolated mitochondria with purified non-tagged forms of AIF in the presence or absence of PAR and followed this by centrifugation to remove the mitochondria. Detection of AIF remaining in the supernatant was thereafter performed through immunoblot analysis.
The supernatant collected in the experiments of Example 16 were also analyzed for the presence of Tom20 and cyclochrome c.

PAR [1] = test: nitrocellulose saturation binding experiments
Description: (§1) Applicants thereafter repeated the experiments using both wild type and mutant AIFm peptides spanning only amino acids 567-592 instead of full length AIFm and obtained results consistent with those using full-length AIF. […] The double amino acid mutant Dm (corresponding to only amino acids 567-592 of AIF-Dm so as to consist of SEQ. ID NO. 16) bound PAR. […] Thus, it is preferred in embodiments of the invention when conducting genetic manipulations to convert at least three target basic amino acids in the PBM to hydrophobic amino acids.
The PAR polymer binding properties of the mutant Pbm-AIF was then measured using full-length recombinant His-WT-AIF and His tagged Pbm-AIF (“His-Pbm-AIF”) via a series of nitrocellulose saturation binding experiments. Similar experiments were also conducted for the shorter peptides Dm and Tm in comparison to WT. FIG. 10B through FIG. 10D comprise charts reporting data from these various experiments. With regard to the shorter peptides, Applicants determined that the binding affinity constant (“Kd”) and maximum binding capacity (“Bmax”) of these AIF mimetic peptides and the results are reported in the chart of FIG. 10B. […] FIG. 10D comprises a Scatchard plot (95% confidence interval) of the results.

PAR [2] = test: dot-blot assay of AIF peptides with 32P-labeled PAR; assay type: binding; conditions: for binding to 32P-labeled automodified PARP-1 or 32P-labeled purified PAR: peptides spanning only amino acids 567-592; for binding to PAR: peptides, 100 nM purified 32P-labeled PAR
Procedure: To determine whether these putative binding sites are in fact responsible for AIF binding to PAR, Applicants performed a dot-blot assay with peptides corresponding to these motifs in the presence of 100 nM purified ^32P-labeled PAR. FIG. 5 comprises black and white photos of representative dot-blot assay for full length WT-AIF, three AIF peptides formed from identified portions of AIFm, histone H3, and BSA in presence of 100 nM purified ^32P-labeled PAR.
as §1

DNA = DNA retardation assay; assay type: binding; conditions: DNA (200 ng), 30 minutes
Procedure: AIF binding-mediated DNA mobility retardation was performed as described by H. Cande et al. (Nat Struct Biol, 2002). Recombinant His-tagged AIF (10 μg or 25 μg) was incubated with 1 kb DNA molecular weight marker (obtained from Fermentas) for 30 minutes at room temperature and loaded on 2.5% agarose gel prestained with ethidium bromide (1 μg/ml). Mobility shift was visualized under the Alpha Innotech UV illuminator.
Further, a DNA retardation assay of His-WT-AIF and His-Pbm-AIF was conducted by incubating both with DNA (200 ng) for 30 minutes, using BSA as a negative control.

[3] = PAR binding, saturation binding
[4] = PAR binding, saturation binding, ligand binding program of Sigma plot, read-out: Kd

- Tom20 in the supernatant (mitochondrial integrity) (isolated mitochondria; any concentration of PAR used): could not be detected in the supernatant
Molecule: Poly(ADP-ribose) [PAR, reference compound]
- release of endogenous cytochrome c from mitochondria (isolated mitochondria; 5 nM and 50 nM PAR): failed to induce the release of endogenous cytochrome c
- release of endogenous cytochrome c from mitochondria (isolated mitochondria; 100 nM PAR): a weak cytochrome c signal could be detected

- Bmax (PAR [1]; [3]): 4.57 pmol
- Bmax (PAR [1]; PAR binding, saturation binding, listed as AIFm567-592 peptide): 4.55 pmol
Molecule: peptide of amino acids 567-592 of mouse AIF, SEQ. ID NO. 10 LRDKVVVGIVLWNVFNRMPIARKIIK (mouse) [WT peptide]

- Bmax (PAR [1]; [3]): 1.77 pmol
- Kd (PAR [1]; [4]): 107000 nM
- PAR binding in saturation binding experiments (PAR [1]; result in words): clearly reduced PAR binding
- binding to 32P-labeled automodified PARP-1 or 32P-labeled purified PAR (PAR [2]): failed to bind
Molecule: amino acids 567-592 of AIF-Tm, SEQ. ID NO. 17 LRDKVVVGIVLWNVFNRMPIAAAIIA (mouse) [Tm peptide]

- Bmax (PAR [1]; [3]): 3.97 pmol
- Kd (PAR [1]; [4]): 3300 nM
- binding to 32P-labeled automodified PARP-1 or 32P-labeled purified PAR (PAR [2]): bound PAR
Molecule: amino acids 567-592 of AIF-Dm, SEQ. ID NO. 16 LRDKVVVGIVLWNVFNRMPIAAAIIK (mouse) [Dm peptide]

- binding to PAR (PAR [2]): failed to bind PAR appreciably
Molecule: peptide composed of AIFm amino acids 441-463: peptide of mouse AIF amino acids 441-463, SEQ. ID NO. 5 (FYDIKLGRRRVEHHDHAVVSGRL; mouse)

- binding to PAR (PAR [2]): bound less well
Molecule: peptide composed of AIFm amino acids 222-244: peptide of mouse AIF amino acids 222-244, SEQ. ID NO. 1 (GGVAVLTGKKVVHLDVRGNMVKL; mouse)

- DNA-binding properties (DNA): comparable
- Bmax (PAR [1]; [3]): 200.83 pmol
- Kd (PAR [1]; [4]): 100 nM
- Bmax (PAR [1]; specific binding (His-Pbm-AIF values subtracted), Scatchard analysis): 116.208 pmol
- Kd (PAR [1]; specific binding (His-Pbm-AIF values subtracted), Scatchard analysis, read-out: calculated Kd): 66.3 nM
B1: His-WT-AIF: full-length recombinant His-tagged wild type mouse AIF (protein)
chain: MFRCGGLAGAFKQKLVPLVRTVYVQRPKQRNRLPGNLFQQWRVPLELQMARQMASSGSSGGKMDNSVLVLIVGLSTIGAGAYAYKTIKEDQKRYNERVMGLGLSPEEKQRRAIASATEGGSVPQIRAPSHVPFLLIGGGTAAFAAARSIRARDPGARVLIVSEDPELPYMRPPLSKELWFSDDPNVTKTLQFRQWNGKERSIYFQPPSFYVSAQDLPNIENGGVAVLTGKKVVHLDVRGNMVKLNDGSQITFEKCLIATGGTPRSLSAIDRAGAEVKSRTTLFRKIGDFRALEKISREVKSITVIGGGFLGSELACALGRKSQASGIEVIQLFPEKGNMGKILPQYLSNWTMEKVKREGVKVMPNAIVQSVGVSGGRLLIKLKDGRKVETDHIVTAVGLEPNVELAKTGGLEIDSDFGGFRVNAELQARSNIWVAGDAACFYDIKLGRRRVEHHDHAVVSGRLAGENMTGAAKPYWHQSMFWSDLGPDVGYEAIGLVDSSLPTVGVFAKATAQDNPKSATEQSGTGIRSESETESEASEITIPPSAPAVPQVPVEGEDYGKGVIFYLRDKVVVGIVLWNVFNRMPIARKIIKDGEQHEDLNEVAKLFNIHED
modifications: left off: small tags and cut ends
